{"source": "patent US7662780B2", "about": "“Administering hypocretin to obese individuals” (The Regents of the University of California, priority 2003, dated 2010)", "key": {"[1]": {"assay": "Activity of hypocretin in obese humans: wrist actigraph and body weight", "type": "in vivo", "conditions": "about 0.03 to about 600 μg/kg/day for four weeks, vs placebo control group", "description": "Hypocretin or hypocretin agonist is submitted to safety testing following usual Food and Drug Administration (FDA) requirements. Afterward, the effect of administration of hypocretin or hypocretin agonist on obese humans is investigated. The study includes ten humans in the experimental group and ten humans in the control group. Humans in the experimental and control groups receive administration by intranasal inhalant, or by transdermal or other means. The experimental group receives hypocretin or hypocretin agonist at dosing regimes of about 0.03 μg/kg/day to about 600 μg/kg/day for a period of four weeks. The control group receives a placebo. Activity levels of the humans in both groups are measured with a wrist actigraph, and each human is weighed daily (or another sign of excess body weight is measured).\nEach animal is weighed daily, and the running wheel activity for each animal is recorded."}, "[2]": {"assay": "Motor activity (actigraph) after Hcrt-1 injection", "type": "in vivo", "method": "FIG. 1. Acute changes in motor activity after Hcrt-1 administration. (a) A representative actigraph record (5 minute bins) showing the activity level during the 2 hr period following Hcrt-1 (3 μg/kg) and normal saline. Hcrt-1 produced an increase in motor activity within 5 minutes of injection that persisted for 60 minutes. […] In (b) values are mean±SE, *p<0.05; **p<0.01, Newman-Keuls test.\nThe motor or muscular activity level of the individual can be measured by a variety of means. Motor activity levels may be directly observed and measured by clinicians, or the individual may themselves measure their activity level which typically includes body movement or locomotion. The monitoring can include maintaining a log of activity, including intensity and duration of the activity. An actigraph device, or activity monitor, may be used. An actigraph detects activity by sensing motion via an internal accelerometer. It is a small lightweight instrument that can be worn, for example, on the wrist, waist, or ankle to record physical activity. Actigraphs are often used to estimate energy expenditure or to study motion in an individual, as described in Example 4 and shown in FIG. 1.\nThe differences in amplitude of motor activity following hypocretin and saline injection diminished over the following 60 minutes (FIGS. 1a, 1b)."}, "[3]": {"assay": "Hypocretin via ventricular injection (osmotic minipump): running wheel activity and body weight", "type": "in vivo, rat", "conditions": "third ventricle minipump, about 0.03 to about 600 μg/kg/day, vs control and untreated animals", "description": "The effect of hypocretin administration on the body weight of a normal rat or other rodent is investigated. The study includes ten animals in the experimental group, ten animals in the control group, and ten animals in the untreated group. […] Animals in the experimental and control groups are fitted with an Alzet Model 2004 osmotic minipump (Alza). The minipump delivers solution to the third ventricle of the brain, adjacent to the hypothalamus, for a one to six month period. The experimental group receives hypocretin peptide continuously at dosing regimes of about 0.03 μg/kg/day to about 600 μg/kg/day. The control group receives diluent. Animals in all groups are provided with a running wheel and customary rat chow is available ad libitum. Each animal is weighed daily (or another sign of excess body weight is measured), and the running wheel activity for each animal is recorded."}, "[4]": {"assay": "Hypocretin via jugular catheter/osmotic minipump: running wheel activity and body weight", "type": "in vivo, rats", "conditions": "about 0.03 to about 600 μg/kg/day, vs control and untreated animals", "method": "The effect of administration of hypocretin-1 or other agonists of the hypocretin receptors on rats is investigated. The study includes ten animals in the experimental group, ten animals in the control group, and ten animals in the untreated group. […] Animals in the experimental and control groups receive a jugular catheter implant attached to an osmotic minipump. The experimental group receives hypocretin-1 or other agonist at dosing regimes of about 0.03 μg/kg/day to about 600 μg/kg/day. The control group receives diluent. Animals in all groups are provided with a running wheel and customary rat chow is available ad libitum. Each animal is weighed daily (or another sign of excess body weight is measured), and the running wheel activity for each animal is recorded."}, "Hcrt-1 antiserum": {"system": "Hcrt-1 antiserum", "assay": "Solid-phase radioimmunoassay (RIA) for Hcrt-1", "type": "binding", "conditions": "competition with 125I-labeled Hcrt-1 for immobilized antiserum", "method": "FIG. 2. The protocol for a sequential multiple antigen radioimmunoassay for hypocretin-1 (Hcrt-1) and hypocretin-2 (Hcrt-2). Sample or standard is loaded into wells onto which antiserum for Hcrt-1 has been pre-adsorbed via protein-A Subsequently, radiolabeled Hcrt-1 (Hcrt-1*) is added to the wells. Competition for the antiserum then ensues between Hcrt-1 and Hcrt-1*. The contents of the wells are then transferred to new wells onto which antiserum for Hcrt-2 has been preadsorbed and the procedure repeated but with radiolabeled Hcrt-2 (Hcrt-2*). The previous wells are washed and counted for bound radioactivity. […]\nFurthermore, sensitivity is increased over that obtained with more traditional methods using identical antibodies and assay volumes. […] For example, the individual wells of a 96-well plate containing Ab-bound tracer peptide are then physically separated and counted in a gamma counter. […]\nThe Hcrt-1, iodinated Hcrt-1, and Hcrt-1 antiserum were obtained from Phoenix Pharmaceuticals, Inc. (530 Harbor Blvd, Belmont, Calif.). […] This enables direct reading of radioactivity in a Top Count plate reader (Packard) without the requirement to separate out individual wells. […]\nPrior to RIA, Hcrt-1 is extracted from the CSF or plasma sample. […] The eluant is then dried down and re-suspended in RIA buffer ready for assay. […]"}, "[5]": {"conditions": "Hcrt-1 3 μg/kg vs normal saline, actigraph record"}}, "note": "Where no end group is shown, it is not given here.", "data": [{"substance": "hypocretin", "values": [{"measurement": "activity levels (wrist actigraph)", "setting": "[1]", "result": "increased activity levels"}, {"measurement": "weight loss", "setting": "[1]", "result": "greater weight loss"}, {"measurement": "motor activity", "setting": "[2]; first 30 minutes after injection, vs saline injection", "result": "increased motor activity"}, {"measurement": "running wheel activity", "setting": "[3]", "result": "increased running wheel activity"}, {"measurement": "weight gain", "setting": "[3]", "result": "decreased weight gain"}, {"measurement": "running wheel activity", "setting": "[4]", "result": "increased running wheel activity"}, {"measurement": "weight gain", "setting": "[4]", "result": "decreased weight gain"}]}, {"substance": "hypocretin-1 (QPLPDCCRQKTCSCRLYELLHGAGNHAAGILTL; ends and bridges not checked; cysteine pairing not given here; UniProt O43612 34-66, looked up) [Hcrt-1, hypocretin neuropeptide derived from prepro-hypocretin; human orexin-A is reported as a 33 residue peptide of 3562 Da]", "values": [{"measurement": "increase of motor activity as compared to saline control", "setting": "[2]; 0-30 and 30-60 minutes after administration, Newman-Keuls test", "result": "statistically significant"}, {"measurement": "onset of increase in motor activity after injection", "setting": "[2]; [5]", "result": "≤ 5", "unit": "min"}, {"measurement": "persistence of increase in motor activity", "setting": "[2]; [5]", "result": 60, "unit": "min"}, {"measurement": "IC50 value for this Hcrt-1 assay", "setting": "Hcrt-1 antiserum", "result": 2, "unit": "fmol"}]}]}
